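1) Cells in 96-well plates. 2) Compound, 48 h, 5 concentrations. 3) Linear interpolation between surrounding doses. 4) Unreached endpoint = highest concentration. TGI: concentration producing complete growth inhibition.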
How the values were obtained:
Experiment in all cases: inhibition of tumour cell growth, NCI panel, 48 h
786-0 renal = test system: 786-0 renal
A498 renal = test system: A498 renal
A549 NSCLC = test system: A549 NSCLC
ACHN renal = test system: ACHN renal
CAKI-1 renal = test system: CAKI-1 renal
CCRF-CEM leukemia = test system: CCRF-CEM leukemia
COLO 205 colon = test system: COLO 205 colon
DMS 114 small cell lung = test system: DMS 114 small cell lung
DMS 273 small cell lung = test system: DMS 273 small cell lung
EKVX NSCLC = test system: EKVX NSCLC
HCC-2998 colon = test system: HCC-2998 colon
HCT-116 colon = test system: HCT-116 colon
HCT-15 colon = test system: HCT-15 colon
HOP-18 NSCLC = test system: HOP-18 NSCLC
HOP-62 NSCLC = test system: HOP-62 NSCLC
HT29 colon = test system: HT29 colon
IGROV1 ovarian = test system: IGROV1 ovarian
K-562 leukemia = test system: K-562 leukemia
KM12 colon = test system: KM12 colon
KM20L2 colon = test system: KM20L2 colon
LOX IMVI melanoma = test system: LOX IMVI melanoma
LXFL 529 NSCLC = test system: LXFL 529 NSCLC
M14 melanoma = test system: M14 melanoma
MALME-3M melanoma = test system: MALME-3M melanoma
MOLT-4 leukemia = test system: MOLT-4 leukemia
NCI-H226 lung = test system: NCI-H226 lung
NCI-H23 lung = test system: NCI-H23 lung
NCI-H460 lung = test system: NCI-H460 lung
NCI-H522 lung = test system: NCI-H522 lung
OVCAR-3 ovarian = test system: OVCAR-3 ovarian
OVCAR-4 ovarian = test system: OVCAR-4 ovarian
OVCAR-5 ovarian = test system: OVCAR-5 ovarian
OVCAR-8 ovarian = test system: OVCAR-8 ovarian
RPMI-8226 leukemia = test system: RPMI-8226 leukemia
RXF 393 renal = test system: RXF 393 renal
RXF-631 renal = test system: RXF-631 renal
SF-268 CNS = test system: SF-268 CNS
SF-295 CNS = test system: SF-295 CNS
SF-539 CNS = test system: SF-539 CNS
SK-MEL-2 melanoma = test system: SK-MEL-2 melanoma
SK-MEL-5 melanoma = test system: SK-MEL-5 melanoma
SK-OV-3 ovarian = test system: SK-OV-3 ovarian
SN12C renal = test system: SN12C renal
SNB-75 CNS = test system: SNB-75 CNS
SNB-78 CNS = test system: SNB-78 CNS
SW-620 colon = test system: SW-620 colon
TK-10 renal = test system: TK-10 renal
U251 CNS = test system: U251 CNS
UACC-257 melanoma = test system: UACC-257 melanoma
UACC-62 melanoma = test system: UACC-62 melanoma
UO-31 renal = test system: UO-31 renal
XF 498 CNS = test system: XF 498 CNS

For Cn1c(=O)nc2n(-c3cccc(Cl)c3)c3ccccc3nc-2c1=O, the TGI (786-0 renal) was over 100 µM, the TGI (A498 renal) was 79.3 µM and the TGI (A549 NSCLC) was 33 µM. The TGI (ACHN renal) was 29.8 µM, the TGI (CAKI-1 renal) was 70 µM and the TGI (CCRF-CEM leukemia) was 50.5 µM. It also gave a TGI (COLO 205 colon) of 16 µM, a TGI (DMS 114 small cell lung) of 20 µM and a TGI (DMS 273 small cell lung) of 25.1 µM. It also gave a TGI (EKVX NSCLC) of 26.9 µM, a TGI (HCC-2998 colon) of 25.6 µM and a TGI (HCT-116 colon) of 30.8 µM. For the same compound, the TGI (HCT-15 colon) was 30.2 µM, the TGI (HOP-18 NSCLC) was 85.5 µM and the TGI (HOP-62 NSCLC) was 90.9 µM. The TGI (HT29 colon) was 21.4 µM, the TGI (IGROV1 ovarian) was 54 µM and the TGI (K-562 leukemia) was 38.2 µM. The TGI (KM12 colon) was 44.9 µM, the TGI (KM20L2 colon) was 23.8 µM and the TGI (LOX IMVI melanoma) was 59.8 µM. It also gave a TGI (LXFL 529 NSCLC) of 72.8 µM, a TGI (M14 melanoma) of 24 µM and a TGI (MALME-3M melanoma) of 12.3 µM. For the same compound, the TGI (MOLT-4 leukemia) was 42 µM, the TGI (NCI-H226 lung) was 74.9 µM and the TGI (NCI-H23 lung) was 21.9 µM. It also gave a TGI (NCI-H460 lung) of 26.2 µM, a TGI (NCI-H522 lung) of 30.7 µM and a TGI (OVCAR-3 ovarian) of 6.61 µM. It also gave a TGI (OVCAR-4 ovarian) of 24.6 µM, a TGI (OVCAR-5 ovarian) of 40.8 µM and a TGI (OVCAR-8 ovarian) of 78.1 µM. It also gave a TGI (RPMI-8226 leukemia) of 51 µM, a TGI (RXF 393 renal) of 83.3 µM and a TGI (RXF-631 renal) of 40.8 µM. The TGI (SF-268 CNS) was over 100 µM, the TGI (SF-295 CNS) was 62.1 µM and the TGI (SF-539 CNS) was 33 µM. It also gave a TGI (SK-MEL-2 melanoma) of 40.7 µM, a TGI (SK-MEL-5 melanoma) of 25.2 µM and a TGI (SK-OV-3 ovarian) of over 100 µM. For the same compound, the TGI (SN12C renal) was 28.5 µM, the TGI (SNB-75 CNS) was 51.8 µM and the TGI (SNB-78 CNS) was 57.7 µM. The TGI (SW-620 colon) was 25 µM, the TGI (TK-10 renal) was 73.6 µM and the TGI (U251 CNS) was 37.7 µM. It also gave a TGI (UACC-257 melanoma) of 23.8 µM, a TGI (UACC-62 melanoma) of 6.36 µM and a TGI (UO-31 renal) of over 100 µM. The TGI (XF 498 CNS) was 35.3 µM.
